Drawing on PubChem BioAssay (NCI), this text covers GI50 and TGI for eight compounds.

Among the test systems are 786-0 renal; A549 NSCLC; COLO 205 colon; NCI-H460 lung; NCI-H522 lung; OVCAR-8 ovarian; RPMI-8226 leukemia; SF-539 CNS; SK-MEL-2 melanoma; TK-10 renal.
Common to all, as to assay: NCI-60 cell line screen, 48 h

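Exposure lasted 48 hours, with cells grown in 96-well plates and compounds tested at five concentrations. GI50: concentration for 50% inhibition of growth. TGI: total growth inhibition.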 *1 amine or outer side, *2 acyl side, *3 side chain or, on linkers, in order; H or OH if unused. Where a SMILES comes first, the peptide text is derived from it. Bridges are numbered along the chain shown (N, C = ends). [ ]: non-standard residue; d: D form. The star is where a group is joined. X19 = O=C([C@H](N[*:1])c1ccc(O[C@H]2O[C@@H](CO)[C@@H](O)[C@@H](O)[C@H]2O[C@@H]2O[C@H](CO)[C@H](O)[C@H](O)[C@@H]2O)cc1)[*:2]; X18 = NC(=O)[C@@H](O[*:3])[C@H](N[*:1])C(=O)[*:2]; X20 = O=C([C@H](N[*:1])c1ccc(O)c(Cl)c1)[*:2]; d(aThr) = C[C@@H](O)[C@@H](N)C(=O)O; dHpg = N[C@@H](C(=O)O)c1ccc(O)cc1; X17 = CC(C)C/C=C/C=C/C(=O)*; dOrn = NCCC[C@@H](N)C(=O)O Where only a bound is given, the exact number is not on record here.

As for `O=S(=O)(NCCCNc1cc(-c2cn(-c3ccccc3)nc2-c2cccc(O)c2)ccn1)c1cccc2ccccc12`, the GI50 was 1.59 µM in the assay on 786-0 renal; 3.5 µM in the assay on A549 NSCLC; 1.69 µM with COLO 205 colon; 2.89 µM in the assay with NCI-H460 lung; 2.32 µM with NCI-H522 lung; 5.46 µM in the assay with OVCAR-8 ovarian. The GI50 was 1.85 µM in the assay with RPMI-8226 leukemia, 2.43 µM with SF-539 CNS, 2.45 µM in the assay on SK-MEL-2 melanoma and 6.11 µM in the assay on TK-10 renal. In addition, the TGI with 786-0 renal was 3.57 µM; with A549 NSCLC, more than 100 µM; in the assay on COLO 205 colon, 3.29 µM; in the assay with NCI-H460 lung it was 10.4 µM; with NCI-H522 lung it was 5.66 µM; in the assay on OVCAR-8 ovarian, more than 100 µM. Also, the TGI in the assay with RPMI-8226 leukemia came out at 7.89 µM; in the assay on SF-539 CNS it was 20.2 µM; in the assay on SK-MEL-2 melanoma, 6.25 µM; in the assay with TK-10 renal it was 44.9 µM.

As to `CCOC(=O)CNC1C(NC(C)=O)C(OC)OC2COC(c3ccccc3)OC21` (centres undefined), the TGI with 786-0 renal, with A549 NSCLC, in the assay with COLO 205 colon, in the assay with NCI-H460 lung, in the assay with NCI-H522 lung and with OVCAR-8 ovarian was more than 100 µM each time. Further, the TGI in the assay on RPMI-8226 leukemia, in the assay on SF-539 CNS, in the assay on SK-MEL-2 melanoma and in the assay on TK-10 renal was more than 100 µM throughout.

As for `Cc1cccc2c1O/C(=C\c1ncc([N+](=O)[O-])n1C)C2=O`, the GI50 in the assay on 786-0 renal was 0.28 µM; in the assay on A549 NSCLC, 0.382 µM; in the assay on COLO 205 colon it was 0.254 µM; with NCI-H460 lung it was 0.132 µM; with NCI-H522 lung, 0.188 µM; in the assay with OVCAR-8 ovarian, 0.166 µM. Moreover, the GI50 in the assay with RPMI-8226 leukemia was 0.589 µM; with SF-539 CNS, 1.15 µM; in the assay with SK-MEL-2 melanoma, 0.246 µM; in the assay with TK-10 renal, 0.257 µM. The TGI stood at 0.969 µM with 786-0 renal; 2.26 µM with A549 NSCLC; 1.42 µM in the assay on COLO 205 colon; 0.581 µM in the assay with NCI-H460 lung; 0.523 µM in the assay with NCI-H522 lung; 2.01 µM with RPMI-8226 leukemia. Further, the TGI in the assay with SF-539 CNS was found to be 3.87 µM; with SK-MEL-2 melanoma, 0.584 µM; in the assay on TK-10 renal it was 0.66 µM.

Take `COc1cccc(-c2nc(-c3ccc(NC(=O)c4ccccc4)cc3)[nH]c2-c2ccnc(Br)c2)c1`: the GI50 in the assay on 786-0 renal is 0.702 µM; in the assay on A549 NSCLC it was 4.07 µM; in the assay on COLO 205 colon it was 3.55 µM; in the assay on NCI-H460 lung, 3.53 µM; in the assay on NCI-H522 lung, 3.17 µM; with OVCAR-8 ovarian it was 4.02 µM. The GI50 is 0.398 µM in the assay on RPMI-8226 leukemia, 1.59 µM with SF-539 CNS, 2.93 µM with SK-MEL-2 melanoma and 6.92 µM in the assay on TK-10 renal. The TGI in the assay with 786-0 renal was 5.88 µM; with A549 NSCLC, more than 100 µM; in the assay with COLO 205 colon it was more than 100 µM; with NCI-H460 lung, more than 100 µM; in the assay on NCI-H522 lung, more than 100 µM; with OVCAR-8 ovarian, more than 100 µM. Further, the TGI with RPMI-8226 leukemia was 2.11 µM; in the assay with SF-539 CNS it was 12.6 µM; in the assay on SK-MEL-2 melanoma, more than 100 µM; in the assay on TK-10 renal it was more than 100 µM.

Turning to `CC(C)C/C=C/C=C/C(=O)N[C@@H](CC(N)=O)C(=O)N[C@@H]1C(=O)N[C@H](c2ccc(O)cc2)C(=O)N[C@H](CCCN)C(=O)N[C@H]([C@@H](C)O)C(=O)N[C@H](c2ccc(O)cc2)C(=O)N[C@H](c2ccc(O)cc2)C(=O)N[C@H]([C@H](C)O)C(=O)N[C@H](Cc2ccccc2)C(=O)N[C@H](CCCN)C(=O)N[C@H](c2ccc(O[C@H]3O[C@@H](CO)[C@@H](O)[C@@H](O)[C@H]3O[C@@H]3O[C@H](CO)[C@H](O)[C@H](O)[C@@H]3O)cc2)C(=O)N[C@H]([C@H](C)O)C(=O)N[C@H](c2ccc(O)cc2)C(=O)NCC(=O)N[C@H](CC(C)C)C(=O)N[C@H](C)C(=O)N[C@H](c2ccc(O)c(Cl)c2)C(=O)O[C@@H]1C(N)=O` (X17-N[X18][dHpg][dOrn][d(aThr)][dHpg][dHpg][dT][dF][dOrn][X19][dT][dHpg]G[dL][dA][X20]; ester 2-C), the GI50 was 25 µM in the assay on 786-0 renal; more than 100 µM in the assay with A549 NSCLC; 37.8 µM in the assay on COLO 205 colon; 23.5 µM in the assay with NCI-H460 lung; 33.9 µM with NCI-H522 lung; 46.8 µM with OVCAR-8 ovarian. Besides, the GI50 in the assay with RPMI-8226 leukemia was 59.8 µM; in the assay on SF-539 CNS, 22.8 µM; in the assay with SK-MEL-2 melanoma, more than 100 µM; with TK-10 renal, 38.7 µM. The TGI was 56.7 µM in the assay on 786-0 renal; more than 100 µM in the assay with A549 NSCLC; more than 100 µM with COLO 205 colon; 66.9 µM with NCI-H460 lung; more than 100 µM with NCI-H522 lung; more than 100 µM in the assay on OVCAR-8 ovarian. Besides, the TGI in the assay on RPMI-8226 leukemia is more than 100 µM; in the assay on SF-539 CNS it was 60.9 µM; with SK-MEL-2 melanoma, more than 100 µM; in the assay with TK-10 renal, 91.1 µM.

On to `NC1=NC(c2ccccc2)CC(c2cc(Cl)cc(Br)c2O)=N1` (centres undefined), for which the TGI in the assay with 786-0 renal amounted to 31.5 µM; with A549 NSCLC it was 34.6 µM; in the assay on COLO 205 colon it was 25.6 µM; in the assay on NCI-H460 lung, 19.9 µM; in the assay on NCI-H522 lung it was 15.4 µM; in the assay with OVCAR-8 ovarian, 38.5 µM. Also, the TGI in the assay on RPMI-8226 leukemia turned out to be 33.6 µM; in the assay with SF-539 CNS, 25.4 µM; in the assay with SK-MEL-2 melanoma it was 18.6 µM; with TK-10 renal, 37.3 µM.

`COc1cc2ccc(/C(C)=N/OC(C)=O)cc2cc1OC`: the TGI with 786-0 renal, in the assay on A549 NSCLC, in the assay on COLO 205 colon, in the assay on NCI-H460 lung, with NCI-H522 lung and in the assay on OVCAR-8 ovarian was more than 100 µM throughout. For the same compound, the TGI with RPMI-8226 leukemia, in the assay on SF-539 CNS, with SK-MEL-2 melanoma and in the assay with TK-10 renal was more than 100 µM in each case.

For the compound `COc1ccccc1N1CCN(C(=O)c2ccc(NS(=O)(=O)c3cccc4cccnc34)cc2)CC1`, the GI50 in the assay with 786-0 renal was more than 61.7 µM; with A549 NSCLC, more than 100 µM; in the assay with COLO 205 colon it was more than 100 µM; in the assay with NCI-H460 lung, more than 100 µM; with NCI-H522 lung it was 22.2 µM; with OVCAR-8 ovarian it was more than 43.5 µM. Besides, the GI50 is more than 100 µM in the assay on RPMI-8226 leukemia, more than 54.4 µM with SF-539 CNS, more than 100 µM in the assay on SK-MEL-2 melanoma and more than 64.1 µM in the assay with TK-10 renal. Further, the TGI with 786-0 renal is more than 100 µM; in the assay with A549 NSCLC it was more than 100 µM; in the assay on COLO 205 colon it was more than 100 µM; in the assay with NCI-H460 lung, more than 100 µM; with NCI-H522 lung, more than 88.5 µM; in the assay with OVCAR-8 ovarian, more than 100 µM. In addition, the TGI with RPMI-8226 leukemia, with SF-539 CNS, in the assay with SK-MEL-2 melanoma and with TK-10 renal was more than 100 µM each time.
